Source: patent US20170065561A1, “METHODS OF CANCER THERAPY” (CAMBRIDGE ENTERPRISE LIMITED, priority 2014, published 2017)
Entries after “also recorded” stand apart in the source; their conditions may differ.

Experiments:
[1] = test system: plasma glucosylceramide (GL-1); experiment: Short-term dose-range experiment in GD mice: plasma glucosylceramide; assay type: in vivo, mouse; settings: 6 week-old GD mice, 150 mg/kg and 300 mg/kg orally for two weeks
Procedure: (§1) The inducible mouse model of type 1 Gaucher disease [Gba^tm1Karl/tm1KarlTg (Mx1-cre) 1Cgn/0 (MGI:3687965; MGI:2176073)[41]. The mating, induction with polyinosinic-polycytidylic (poly I:C) acid sodium salt solution and genotyping were conducted as previously described. Animals of genotype Gba^tm1Karl/tm1KarlTg (Mx1-cre) 1Cgn/0 are referred GD mice; induced mice with the Gba^tm1Karl/tm1Karl and Gba^tm1Karl/+ genotypes and background strain wild type animals served as age-matched controls. All mice here reported had been bred on a C57BL/6 and 129/sv background.
The drug GENZ 112638 (Genzyme) was formulated in a standard rodent food (TestDiet) at 0.075% and 0.15% w/w. A group of six GD mice received 150 mg/kg daily, a second group of six GD mice received the drug at 300 mg/kg daily, and eight age-sex matched GD animals were given a base diet (TestDiet). The animals received the drug for 14 days and were then killed for analysis of tissue lipids.
(§2) Concentrations of β-D-glucosylceramide in plasma in the short-term tolerability study were conducted as previously published. β-D-glucosylceramide, β-D-glucosylsphingosine and ceramide concentrations in tissues and plasma samples of the principal intervention and delayed-treatment experiments were quantified as previously reported.

[2] = test system: plasma β-D-glucosylsphingosine; experiment: Main treatment experiments in GD mice: plasma glucosylsphingosine; assay type: in vivo, mouse; settings: for plasma glucosylsphingosine: GD mice with intermittent treatment; for reduction of plasma glucosylsphingosine: 300 mg/kg/day
Procedure: as §1
GENZ 112638 was introduced at a mean age of 1.5 months, with access to the diet and water ad libitum. All experimental animals were housed in individually ventilated cages in groups of up to three mice within the same environmental conditions. The health of the animals was checked daily; body weights and food consumption were monitored at intervals of three days. The humane endpoints were approved and established: (i) reduction of 20% or more of the greatest recorded body weight or (ii) the development of adverse manifestations (e.g. development of frank tumours or cachexia).
as §2

[3] = test system: Gaucher mice; experiment: Main treatment experiments: plasma/serum protein electrophoresis and immunofixation (monoclonal immunoglobulin species); assay type: in vivo, mouse; settings: for detectable monoclonal paraprotein species: GD mice, early administration from six weeks of age; for M-protein (number of mice): 300 mg/Kg daily months 1.5-12
Procedure: (§3) Plasma/serum protein electrophoresis was carried out in agarose gels using a semiautomatic system (Hydrasys, Sebia) using 10 μL samples of neat serum or plasma. Immunofixation using polyclonal anti-sera raised against murine heavy and light immunoglobulin chains was conducted with diluted serum samples as previously reported.
The non-parametric Mann-Whitney test was used for between-groups comparisons. The Fisher's exact test was used for comparison of the occurrence of lymphoma or plasma paraprotein in treated and untreated groups. Statistical analyses were conducted using GraphPad Prism v5.0 software.

[4] = test system: GD mice; experiment: Delayed treatment experiments: lymphoid hyperplasia and lymphoma (histology); assay type: in vivo, mouse; settings: delayed treatment: 300 mg/Kg daily, mean age 7.3 months, 5.4 months, total 9 mice
Procedure: (§4) To investigate the potential effects of delayed treatment, eight Gaucher mice were exposed to Genz-112638 after 6 months of age. The animals received the drug for 6 months at a dose 300 mg/kg daily and were killed at 12 months of age (FIG. 1). A group of eight matched Gaucher disease control mice were given the base standard diet; these animals were monitored and otherwise treated identically with those animals with delayed exposure to the study drug.

[5] = test system: GD mice; experiment: Delayed treatment experiments: M protein species (electrophoresis and immunofixation); assay type: in vivo, mouse; settings: delayed treatment: 300 mg/Kg daily months 7-12, age group 12-18 months
Procedure: as §4, §3

[6] = test system: (GBA^D409/null) knock-in model of Gaucher disease; settings: 75 or 150 mg/kg daily orally for 10 weeks, cited from earlier work
[7] = test system: individuals with non-neuronopathic Gaucher disease; settings: Phase III, over two years, oral; cited from earlier work
[8] = in vivo; cited from earlier work

bis{N-[(1R,2R)-2-(2,3-dihydro-1,4-benzodioxin-6-yl)-2-hydroxy-1-(pyrrolidin-1-ylmethyl)ethyl]octanamide} (2R,3R)-2,3-dihydroxybutanedioate [eliglustat tartrate]
plasma glucosylceramide (GL-1) concentration [1]: decrease the concentration of glucosylceramide
plasma glucosylceramide (GL-1) concentration ([1]; listed as GENZ 112638): dose-dependent decrease
plasma glucosylsphingosine ([2]; listed as GENZ 112638): raised above the reference range
plasma glucosylsphingosine ([2]; listed as Genz-112638): not significantly different
plasma β-D-glucosylsphingosine concentration ([2]; GD mice, 300 mg/kg daily, early continuous treatment, listed as GENZ 112638, 300 mg/kg): decreased; also recorded: notable decrease
reduction of plasma glucosylsphingosine ([2]; GD mice, after 6 months of treatment, p<0.01): ~5 fold
reduction of plasma glucosylsphingosine ([2]; GD mice, after 9 months of treatment, p<0.05): ~2 fold
detectable monoclonal paraprotein species ([3]; listed as GENZ 112638): suppressed the appearance
detectable monoclonal paraprotein species ([3]; listed as Genz-112638): none and prevents development of monoclonal paraproteins
M-protein (number of mice) ([3]; age group 0-6 months, total 4 mice): 0
M-protein (number of mice) ([3]; age group 7-12 months, total 10 mice): 0
M-protein (number of mice) ([3]; age group 13-18 months, total 8 mice): 0
M-protein (number of mice) ([3]; all age groups, total 22 mice): 0
Lymphoid hyperplasia (number of mice) [4]: 4
Lymphoma/myeloma (number of mice) [4]: 1
Lymphoid hyperplasia (number of mice) ([4]; listed as GENZ 112638): five
Lymphoma/myeloma (number of mice) ([4]; listed as GENZ 112638): one and did not completely prevent
M protein (number of mice with monoclonal paraprotein or oligoclonal immunoglobulin secretion) [5]: 5
M protein (number of mice with monoclonal paraprotein or oligoclonal immunoglobulin secretion) ([5]; listed as GENZ 112638): five
glucosylceramide in tissues ([6]; 10 week-old and 7 month-old mice): dose-dependent reduction
infiltration of abnormal macrophages in tissues [6]: decreased infiltration
key clinical manifestations of the disease [7]: clearly improved
safety and tolerability [8]: safe and tolerable
